Drawing on ChEMBL document CHEMBL5126530, “Building on endogenous lipid mediators to design synthetic receptor ligands” (Eur J Med Chem, 2022), this text covers EC50 for two compounds.

Assay type in all cases: functional, cell-based
The target in experiment [1] is T1, Prostaglandin D2 receptor (Homo sapiens, UniProt Q13258).
T1 sequence (Q13258 whole entry): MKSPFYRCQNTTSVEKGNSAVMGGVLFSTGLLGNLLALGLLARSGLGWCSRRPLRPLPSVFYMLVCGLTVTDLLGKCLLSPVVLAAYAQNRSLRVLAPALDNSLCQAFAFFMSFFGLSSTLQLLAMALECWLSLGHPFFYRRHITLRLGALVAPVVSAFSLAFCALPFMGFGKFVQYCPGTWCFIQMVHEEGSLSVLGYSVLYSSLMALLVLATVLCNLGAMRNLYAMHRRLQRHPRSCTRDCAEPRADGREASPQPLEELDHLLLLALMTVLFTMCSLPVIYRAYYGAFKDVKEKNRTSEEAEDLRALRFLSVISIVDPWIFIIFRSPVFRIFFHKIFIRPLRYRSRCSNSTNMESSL
Briefly: Agonist activity at human DP1 expressed in human 1321N1 cells assessed as increase in cAMP level incubated for 20 mins measured after 60 mins addition of cAMP detect reagent by HTRF analysis. (In general: Changes in cAMP serve as a functional read-out for many G protein-coupled receptors.)

The target of a further experiment is Prostacyclin receptor (Homo sapiens, UniProt P43119). Briefly: Agonist activity at human IP expressed in HEK293 cells assessed as increase in cAMP level incubated for 20 mins measured after 60 mins addition of cAMP detect reagent by HTRF analysis.
Chain of Prostacyclin receptor (P43119 whole entry): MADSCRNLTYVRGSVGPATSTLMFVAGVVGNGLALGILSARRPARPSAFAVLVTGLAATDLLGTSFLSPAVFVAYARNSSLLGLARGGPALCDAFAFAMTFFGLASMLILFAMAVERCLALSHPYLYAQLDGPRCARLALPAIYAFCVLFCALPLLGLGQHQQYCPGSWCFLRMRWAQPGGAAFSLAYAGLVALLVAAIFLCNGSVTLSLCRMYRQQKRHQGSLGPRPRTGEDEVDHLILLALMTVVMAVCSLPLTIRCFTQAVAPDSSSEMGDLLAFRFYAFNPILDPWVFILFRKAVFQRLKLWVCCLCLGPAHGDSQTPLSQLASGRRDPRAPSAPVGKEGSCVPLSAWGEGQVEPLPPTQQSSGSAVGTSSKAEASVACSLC
Experiment [2] deals with Prostaglandin E2 receptor EP2 subtype (Homo sapiens, UniProt P43116). Description: Agonist activity at human EP2 expressed in HEK293 cells assessed as increase in cAMP level incubated for 20 mins measured after 60 mins addition of cAMP detect reagent by HTRF analysis.
Chain of Prostaglandin E2 receptor EP2 subtype (P43116 whole entry): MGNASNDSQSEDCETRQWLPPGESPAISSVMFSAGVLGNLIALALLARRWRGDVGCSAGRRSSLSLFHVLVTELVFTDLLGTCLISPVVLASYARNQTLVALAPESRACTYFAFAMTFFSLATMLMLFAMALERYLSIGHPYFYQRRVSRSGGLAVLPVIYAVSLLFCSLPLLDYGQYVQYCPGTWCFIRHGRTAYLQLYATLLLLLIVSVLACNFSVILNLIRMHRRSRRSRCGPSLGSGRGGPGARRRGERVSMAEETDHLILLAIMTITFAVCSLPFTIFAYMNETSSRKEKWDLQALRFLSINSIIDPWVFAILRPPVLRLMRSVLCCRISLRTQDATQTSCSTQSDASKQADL
Experiment [3] deals with T2, Prostaglandin E2 receptor EP1 subtype (Homo sapiens, UniProt P34995).
T2 sequence (P34995 whole entry): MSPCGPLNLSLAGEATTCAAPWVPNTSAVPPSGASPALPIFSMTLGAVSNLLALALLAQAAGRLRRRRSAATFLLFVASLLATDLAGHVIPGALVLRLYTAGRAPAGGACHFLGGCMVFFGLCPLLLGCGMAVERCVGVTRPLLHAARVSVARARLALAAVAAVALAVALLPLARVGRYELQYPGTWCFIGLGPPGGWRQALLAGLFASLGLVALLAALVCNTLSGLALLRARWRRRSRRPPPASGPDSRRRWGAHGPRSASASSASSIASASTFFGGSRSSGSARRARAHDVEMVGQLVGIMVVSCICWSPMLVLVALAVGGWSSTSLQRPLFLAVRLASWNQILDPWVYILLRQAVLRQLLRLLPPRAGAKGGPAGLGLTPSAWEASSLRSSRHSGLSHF
Briefly: Agonist activity at human EP1 expressed in HEK293 cells assessed as increase in cAMP level incubated for 20 mins measured after 60 mins addition of cAMP detect reagent by HTRF analysis.

As usually defined, the EC50 is the midpoint of the concentration-response curve.

`CCCCC[C@H](O)CC[C@@H]1[C@H]2Cc3cccc(OCC(=O)O)c3C[C@H]2C[C@H]1O` [TREPROSTINIL]: the half-maximal effective concentration (EC50) in experiment [1] amounted to 0.6 nM; on Prostacyclin receptor, 1.9 nM; in experiment [2], 6.2 nM; in experiment [3] it was 285 nM.
Turning to `CC#CCC(C)[C@H](O)/C=C/[C@@H]1[C@H]2C/C(=C/CCCC(=O)O)C[C@H]2C[C@H]1O` (some centres not stated) [ILOPROST], the half-maximal effective concentration (EC50) in experiment [1] worked out at 2060 nM; in experiment [2] it was 2090 nM; in experiment [3], 0.3 nM.
